Counter-ions that a name gives are not always drawn. Where no end group is shown, it is not given here.
Key:
MG-63 cells = test: Collagen-I immunofluorescence in MG-63 cells treated with iron chelator; type: cell-based, human; conditions: 48 hours
Protocol: For microscopy images, cells were cultured in a 24-well plate and incubated with medium supplemented with the indicated concentrations of the treating entity (e.g., peptides or DFO) at 37° C. under 5% CO2. Cells were then washed additional three times with cold phosphate-buffered saline (PBS), following a 20 minute fixation in a 4% paraformaldehyde (PFA) in PBS and extensively washed three times with PBS to remove the PFA, followed by a 20 minute wash with blocking and penetration solution (PBS with 0.1% Triton X-100 and 2% BSA). Fixed cells were incubated with antibodies for 1 hour at 25° C., washed, and developed together with fluorescence-tagged secondary antibodies (Alexa 488 and 647, Abcam). Cell nuclei were stained with 1 mg/mL 4′,6-diamidino-2-phenylindole (DAPI Staining Solution ab228549, Abcam). Images were taken using a ZEISS LSM 900 in confocal mode, using Zen 3.1. Fluorescence readouts were obtained at ex/em of 358/461, 495/519 nm, and 652/668 nm for blue, green, and red, respectively.
The present inventors have incubated MG-63 cells with deferoxamine mesylate (DFO), an iron chelator, to explore the possibility of enhancing Collagen-I levels in these cells.

NIH/3T3 cell line [1] = test: Collagen type 1 immunofluorescence in NIH/3T3 cells (Incucyte); type: cell-based, mouse; conditions: 48 hours; for concentrations with significant increase of collagen type 1 normalized to number of cells vs untreated cells: serial dilution 5-0.02 μM, one-way ANOVA
Protocol: (§1) Embryonic mouse fibroblast NIH/3T3 cell line (ATCC) were seeded at a concentration of 50*10^3 cells/well on 96 well glass bottom plate (P96-1.5H-N, Cellvis) for the immunofluorescence experiment and on cell culture microplate, 96 well, PS, F-Bottom (655090, greiner) for the viability experiment. The cells were cultured with Dulbecco's modified Eagle's medium (DMEM) supplemented with 10% fetal calf serum, 1% Penicillin-Streptomycin solution and 1% L-glutamine (All purchased from Rhenium). At 24 hours post seeding, cells were treated for another 48 hours by replacing them with the cell medium supplemented with a serial dilution (5-0.02 μM, factor dilution of 2) of the ML228, Daprodustat, Enarodustat, Molidustat, Vadadustat or Roxadustat molecules dissolved in DMSO. The final DMSO concentration in the cell medium was 0.01%. Cells were maintained in an incubator at 37° C. in a humidified atmosphere containing 5% CO2.
At 48 hours post treatment with either Daprodustat, Enarodustat, Molidustat, Vadadustat or Roxadustat, cells were fixed for 10 minutes together with their media with 8% paraformaldehyde (PFA, Electron Microscopy Sciences) dissolved in phosphate-buffered saline (PBS, Invitrogen) to a final concentration of 4% PFA, without any wash to avoid cells detachment from the glass. Cells were briefly washed four times with ice-cold PBS to remove the PFA and kept overnight at 4° C. The following day, a blocking solution which contains 1.5% Bovine Serum Albumin (Sigma Aldrich) dissolved in PBS was applied for 30 minutes, followed by an overnight incubation at 4° C. with recombinant rabbit anti-mouse Collagen-I 1° antibody (primary Ab) [EPR24331-53] (ab270993, Abcam), dissolved in the blocking solution (1:1000 dilution). The following day, cells were washed for 3 times with PBS (5 minutes each), followed by immunostaining with goat anti-rabbit IgG H&L (Alexa Fluor® 488) 2° antibody (secondary Ab) (ab150077, Abcam) dissolved in blocking solution (1:1000 dilution). Cells were washed again for 3 times with PBS (5 minutes each), stained for 30 minutes with DRAQ5™ (ab108410, Abcam) for nuclei staining dissolved in PBS (1:1000 dilution), and washed once again with PBS. For the ML228 experiment, cells were washed with PBS before applying 4% PFA dissolved in PBS. Then, fixed cells were additionally permeabilized with 0.2% Triton™ X-100 (Merck) dissolved in PBS, additionally stained with Phalloidin-Atto 594 (51927, Sigma Aldrich) for F-Actin staining for 1 hour (1:250 dilution) together with the aforementioned secondary antibody, followed by 10 minutes incubation with DAPI staining solution (ab228549, Abcam) for nuclei staining dissolved in PBS (1:1000 dilution).
Images were taken using a ZEISS LSM 900 in wide-field or in the LSM confocal detection mode (ML228 experiment), using Zen 3.1. Fluorescence readouts were obtained at excitation/emission: 353/465 nm (DAPI), 493/517 nm (Collagen-I), 590/618 (F-Actin) and 647/683 nm (DRAQ5) using a Plan-Apochromat 20×/0.8 M27 objective.
Image acquisition and quantification were performed by Incucyte SX5 (Sartorius) using software version 2022B Rev2. A standard scan was done for 9 images per well using 20× objective, 2 optical modules (green at excitation/emission of 453-485 nm/494-533 nm in 300 msec acquisition time, and near-IR at excitation/emission of 648-674 nm/685-756 nm in 400 msec acquisition time, including Phase channel) following immunofluorescence protocol. For the image analysis, 2-6 replicates per condition were used. Using the Basic Analyzer mode, “Phase Object Confluence (%)” was acquired using the Phase channel. This measurement is the percentage of the image area occupied by cells. “Total Collagen-I Integrated Intensity Per Image (GCU×μm^2/Image)” was acquired using the green optical module. GCU stands for Green calibrated Unit, while this measurement is the total sum of the Collagen-I objects' fluorescent intensity in the image. “#Cells (Per image)” was acquired by the near-IR optical module. […]

NIH/3T3 cell line [2] = test: Cell confluence / number of cells per image in NIH/3T3 cells; type: cell-based, mouse; conditions: 48 hours; for toxicity suggested by number of cells: 5-0.02 μM
Protocol: as §1
Image acquisition and quantification were performed by Incucyte SX5 (Sartorius) using software version 2022B Rev2. A standard scan was done for 9 images per well using 20× objective, 2 optical modules (green at excitation/emission of 453-485 nm/494-533 nm in 300 msec acquisition time, and near-IR at excitation/emission of 648-674 nm/685-756 nm in 400 msec acquisition time, including Phase channel) following immunofluorescence protocol. For the image analysis, 2-6 replicates per condition were used. Using the Basic Analyzer mode, “Phase Object Confluence (%)” was acquired using the Phase channel. This measurement is the percentage of the image area occupied by cells. “Total Collagen-I Integrated Intensity Per Image (GCU×μm^2/Image)” was acquired using the green optical module. GCU stands for Green calibrated Unit, while this measurement is the total sum of the Collagen-I objects' fluorescent intensity in the image. “#Cells (Per image)” was acquired by the near-IR optical module. This measurement was calculated by counting the number of nuclei per image.
Multiple comparisons were performed by ordinary one-way ANOVA followed by Dunnett's post-hoc statistical hypothesis for comparing each condition mean to the control mean. Statistical analysis was done using GraphPad Prism version 10.0.0 for Windows, GraphPad Software, Boston, Massachusetts USA, worldwideweb(dot)graphpad(dot)com. For statistical analysis, significance was set as (*) p≤0.05; (**) p≤0.01; (***) p≤0.001; (****) p≤0.0001 and (ns; not significant) p>0.05.

[3] = target: T1, PHD2/EGLN1 (HIF-prolyl hydroxylase 2) (human, UniProt Q9GZT9 181-426); test: fluorescence polarization; PHD protein titrated into 200 nM FITC-labeled peptide; single site fit
T1 construct: The protein was expressed as a cleavable GST fusion and the eluate of the GST column was used; also called PHD enzyme; PHD protein
T1 sequence (Q9GZT9 other isoform, or with tags, fused parts or gaps limits assumed): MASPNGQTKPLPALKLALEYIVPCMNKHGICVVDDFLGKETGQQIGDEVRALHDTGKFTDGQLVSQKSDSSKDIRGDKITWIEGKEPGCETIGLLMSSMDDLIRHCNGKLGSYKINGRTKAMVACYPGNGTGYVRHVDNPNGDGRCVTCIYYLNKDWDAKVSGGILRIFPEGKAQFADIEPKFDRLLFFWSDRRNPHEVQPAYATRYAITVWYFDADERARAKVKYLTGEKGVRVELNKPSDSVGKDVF
Protocol: Fluorescence polarization (FP) assay—Fluorescence Polarization (FP) measurements were performed on samples arrayed in a 96-well plate using Biotek HybridH1 reader equipped with a polarized optic system. Binding assay was evaluated by adding variable concentrations of PHD protein into 200 nM of FITC-labeled peptides. Experimental polarization data were fitted using GraphPad Prism9 into a single site binding model, with error bars representing standard deviation.

Molecule | concentrations with significant increase of collagen type 1 normalized to number of cells vs untreated cells (NIH/3T3 cell line [1]) [µM] | toxicity suggested by number of cells (NIH/3T3 cell line [2]) | number of cells compared to untreated cells (NIH/3T3 cell line [2]; serial dilution 5-0.02 μM) | other results
CC(=O)N(O)CCCCCNC(=O)CCC(=O)N(O)CCCCCNC(=O)CCC(=O)N(O)CCCCCN [DFO, Deferoxamine mesylate] | – | – | – | DFO concentration giving maximal Collagen-I levels (MG-63 cells; normalized to β-tubulin): 10 to 20 µM; Collagen-I production (MG-63 cells; even at low DFO concentrations such as 0.15 μM): increased Collagen-I production
Cc1nc(C(=O)NCC(=O)O)c(O)c2ccc(Oc3ccccc3)cc12 [Roxadustat, N-[(4-Hydroxy-1-methyl-7-phenoxy-3-isoquinolinyl)carbonyl]glycine] | 0.08 to 5 | no toxicity | significantly higher | –
O=c1c(-n2ccnn2)c[nH]n1-c1cc(N2CCOCC2)ncn1 [Molidustat, 1,2-Dihydro-2-[6-(4-morpholinyl)-4-pyrimidinyl]-4-(1H-1,2,3-triazol-1-yl)-3H-pyrazol-3-one] | 0.63 to 5 | toxic effect | significantly lower | –
O=C(O)CNC(=O)c1ncc(-c2cccc(Cl)c2)cc1O [Vadadustat, N-[[5-(3-Chlorophenyl)-3-hydroxy-2-pyridinyl]carbonyl]glycine] | – | no toxicity | significantly higher | collagen type 1 expression compared to untreated cells (NIH/3T3 cell line [1]; 0.02-5 μM): significant increase
O=C(O)CNC(=O)C1C(=O)N(C2CCCCC2)C(=O)N(C2CCCCC2)C1=O [Daprodustat, N-[(1,2-Dicyclohexylhexahydro-2,4,6-trioxo-5-pyrimidinyl)carbonyl]glycine] | 0.31 to 5 | no toxicity | no significant difference | number of cells compared to untreated cells (NIH/3T3 cell line [2]; 0.08 μM Daprodustat, p<0.0001): lower number of cells
O=C(O)CNC(=O)c1c(O)cc(CCc2ccccc2)n2ncnc12 [Enarodustat, N-[[7-Hydroxy-5-(2-phenylethyl)[1,2,4]triazolo[1,5-a]pyridin-8-yl]carbonyl]glycine] | 0.31 to 5 | no toxicity | no significant difference | –
DLDLEALAPYIPADDDFQLR (also: FITC label, position not given here, The FP assay used 200 nM of FITC-labeled peptide; also called HIF1 peptide) [HIF peptide (FITC-labeled)] | – | – | – | Kd [3]: 7 µM
ELDLETLAPYIPMDGEDFQL (also: FITC label, position not given here, The FP assay used 200 nM of FITC-labeled peptide; also called EPAS1-derived peptide) [EPAS1 peptide (FITC-labeled)] | – | – | – | Kd [3]: 4 µM

From US20250171821A1, “HIF-1 ACTIVATORS AND USES THEREOF” (Ramot at Tel-Aviv University Ltd., priority 2022, published 2025)
